The numbers were not newly measured in patent US8865644B2, “Rapamycin formulation using recombinant high-density lipoprotein including apolipoprotein A-I and a mutant thereof” (Industry-Academic Cooperation Foundation, Yeungnam …, priority 2010, dated 2014), which cites them from elsewhere.

As to `CO[C@H]1C[C@@H]2CC[C@@H](C)[C@@](O)(O2)C(=O)C(=O)N2CCCC[C@H]2C(=O)O[C@H]([C@H](C)C[C@@H]2CC[C@@H](O)[C@H](OC)C2)CC(=O)[C@H](C)/C=C(\C)[C@@H](O)[C@@H](OC)C(=O)[C@H](C)C[C@H](C)/C=C/C=C/C=C/1C` [rapamycin], the “solubility in water, aliphatic hydrocarbon and diethylether” value is “hardly dissolved”.
